A word on the viability: it is the share of living cells, or the viability signal relative to a control. A lower viability goes with a greater loss of cells. As a reminder, the Cmax is the maximum level reached in the sampled fluid or tissue. One may read the IC50 as the concentration that gives 50% inhibition. A high value points to lower potency.

In data set [1] the test system is patient derived endometrial cancer cells. Type of data set: in vivo, mice. Conditions: paclitaxel alone 10 mg/kg (30.007 mg/m^2), 21 days. The protocol: Human patient cells from endometrial cancer were injected subcutaneously into female NOD/SCID gamma mice after resuspending in 100 μL solution. […] All treatment group mice were kept alive for up to 10 weeks after drug injection or until the tumor volume grows bigger than 2500 mm^3.

The subject of data set [2] is patient derived organoids. It counts as cell-based, human. The text has this:
A few of the above drug products, as well as additional drugs were tried for response to patient derived organoids.

Data set [3] relates to chemosensitive ovarian cancer cells, derived from ascites cells. The settings on record: for viability: human, 14 days.
In data set [4] the test system is chemoresistant ovarian cancer organoid.
Procedure: To culture patient-derived organoids, 2-3×10^3 cells were plated in a pre-warmed (37° C.) 96-well plate in 10 mL of Matrigel (5%FBS AD+++ medium) per well. Individual patient cell organoid was cultured separately in different plates. Individual patient cells were handled separately to reduce the chance of cross-contamination. After mixing cells with Matrigel, 10 mL droplets were placed in wells and put in a 37° C. incubator with 5% CO2 for 30 minutes. Upon solidification of the Matrigel droplet with cells inside, the plate was placed inside a sterile hood and immersed the Matrigel droplet in 200 μL of organoid growth media. Cells were allowed to grow into mature organoids for 14 days. […] All treatments were done in triplicate, including vehicle-only controls (Dimethyl sulfoxide in culture medium at the highest concentration used for drug treatments).
To assess the cell viability in organoids after treatments, CellTiter-Glo® Luminescent Assay (Promega #G7572) was used. In brief, on day 14 of organoid culture, the matrigel droplet in each well with organoid inside was immersed in 100 μL of fresh growth media and 100 μL of CellTiter-Glo® reagent following the manufacturer's guideline. Blank wells containing only media and CellTiter Glo® reagent (no cells) were also included in each plate. Then the plates were put on a shaker @ 110 rpm at room temperature for 5 minutes to induce cell lysis, followed by 25 minutes at room temperature to stabilize the luminescent signal. Each step after adding the CellTiter Glo® reagent was performed in the dark. Luminescence was measured on a FLUOstar OPTIMA plate reader (BMG Lab technologies, Offenburg, Germany). Analysis was performed by normalizing treatment values to the vehicle control and plotting them as a percentage of the vehicle control. Drug IC50 values were determined by inhibitor vs normalized response-variable slope using least squares regression in Graphpad Prism 9.
For data set [5] the following is noted: cells without a printed unit; cited from earlier work.
For data set [6], the system named is patient derived organoids (PD3D Cell Culture). The data set can be described thus: Calculated IC50 in PD3D cell culture of the patient derived organoids. It counts as cell-based, human.
Data set [7] deals with cancer organoid. The data set can be described thus: Effect of pH of the Cannabis extract on organoid viability. Type of data set: cell-based, human. Conditions: pH 8. The protocol:
A further interesting observation was determined by the impacts of pH on the efficacy of the Cannabis extract on organoid data. […] In each case, the control vehicle, buffered to the same pH was ineffective in killing the cells at all, and thus was not depicted. […] However, pH of 12, and certainly of 14 are highly corrosive, alkaline concentrations and are not suitable for therapeutic use.
Accordingly, when providing the Cannabis extract for therapeutic administration, […] yields an unexpected increase in efficacy.

The test system of data set [8] is patient derived chemosensitive and chemoresistant ovarian cancer organoids. In words: Four Cannabis extracts on newly obtained ovarian cancer organoids, viability. It counts as cell-based, human. Conditions: Homo sapiens, all samples. The protocol:
Applicant then tested several different Cannabis extracts at varying concentrations on newly obtained patient derived chemosensitive and chemoresistant ovarian cancer organoids. […] Here, the BSHE continued to work at virtually the same level as prior tests, even though these organoids were generated from different patients than all prior tests. […] However, what remains constant is that at or about 10 μg/mL, virtually all patient derived organoid samples begin to or reach zero viability.

Data set [9] relates to patient derived endometrial cancer organoids. In words: Carboplatin alone or with Cannabis extract, endometrial cancer organoids. It counts as cell-based, human. An excerpt:
To determine if this premise is conserved over different chemotherapeutic agents, Applicant repeated the tests replacing paclitaxel with carboplatin toward a related gynecological cancer cell, endometrial cancer cells. The surprising findings with paclitaxel were further confirmed by testing the impacts of carboplatin alone or carboplatin with a Cannabis extract.
Finally, with a dose of 250 μm/mL carboplatin, a 2.5× in the dose from the […] test, all of the combined therapeutics with carboplatin and Cannabis extract are below 10% viability, while the carboplatin alone remains at above 30%.

In data set [10] the target is P-glycoprotein (Homo sapiens, UniProt P08183). The settings on record: in vitro; cited from earlier work.
For data set [11] the following is noted: chronic use, humans; cited from earlier work.
For data set [12] the following is noted: cited from earlier work.

Molecules are shown by their SMILES. Values after ≈ are worked out from the molar mass of the structure shown. Where two headings read alike, the source gives them in different places.

Sequence of P-glycoprotein (P08183 whole entry): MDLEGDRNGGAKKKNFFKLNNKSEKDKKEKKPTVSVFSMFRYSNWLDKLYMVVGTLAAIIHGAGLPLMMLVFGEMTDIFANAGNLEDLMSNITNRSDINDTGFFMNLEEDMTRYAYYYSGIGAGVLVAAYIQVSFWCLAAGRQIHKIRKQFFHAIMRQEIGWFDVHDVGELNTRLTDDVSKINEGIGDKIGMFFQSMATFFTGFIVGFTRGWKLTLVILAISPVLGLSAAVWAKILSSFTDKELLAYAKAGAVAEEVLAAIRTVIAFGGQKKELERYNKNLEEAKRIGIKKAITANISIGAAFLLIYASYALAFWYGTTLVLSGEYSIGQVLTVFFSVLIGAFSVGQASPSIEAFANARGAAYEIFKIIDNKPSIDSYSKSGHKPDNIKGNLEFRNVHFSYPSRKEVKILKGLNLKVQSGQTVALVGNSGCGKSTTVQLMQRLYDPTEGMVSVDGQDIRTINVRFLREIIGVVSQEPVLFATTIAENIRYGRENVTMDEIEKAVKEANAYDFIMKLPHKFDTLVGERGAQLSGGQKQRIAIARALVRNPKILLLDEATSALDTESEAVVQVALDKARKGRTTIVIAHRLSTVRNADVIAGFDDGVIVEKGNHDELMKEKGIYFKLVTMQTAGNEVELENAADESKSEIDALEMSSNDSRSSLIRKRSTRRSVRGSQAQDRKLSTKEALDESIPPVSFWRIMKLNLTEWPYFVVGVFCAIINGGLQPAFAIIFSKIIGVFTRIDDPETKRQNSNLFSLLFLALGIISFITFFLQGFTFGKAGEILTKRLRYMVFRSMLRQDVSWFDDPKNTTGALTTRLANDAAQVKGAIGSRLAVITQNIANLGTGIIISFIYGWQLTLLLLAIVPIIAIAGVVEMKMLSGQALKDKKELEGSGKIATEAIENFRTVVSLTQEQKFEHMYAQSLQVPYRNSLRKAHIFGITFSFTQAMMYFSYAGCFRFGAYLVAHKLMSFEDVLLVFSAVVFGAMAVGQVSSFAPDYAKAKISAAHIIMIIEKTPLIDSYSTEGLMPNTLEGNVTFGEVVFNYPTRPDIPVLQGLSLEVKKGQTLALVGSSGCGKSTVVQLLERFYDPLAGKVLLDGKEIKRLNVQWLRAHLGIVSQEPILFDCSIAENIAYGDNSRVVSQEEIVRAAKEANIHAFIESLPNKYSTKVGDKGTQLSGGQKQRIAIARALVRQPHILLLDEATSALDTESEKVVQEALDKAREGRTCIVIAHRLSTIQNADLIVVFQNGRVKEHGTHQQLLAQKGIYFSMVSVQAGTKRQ

For `CC(=O)O[C@H]1C(=O)[C@@]2(C)[C@H]([C@H](OC(=O)c3ccccc3)[C@]3(O)C[C@H](OC(=O)[C@H](O)[C@@H](NC(=O)c4ccccc4)c4ccccc4)C(C)=C1C3(C)C)[C@]1(OC(C)=O)CO[C@@H]1C[C@@H]2O` [Paclitaxel], the “effect on tumor volume / tumor growth” value in data set [1] is given as “ineffective in reducing tumor growth”; in data set [1] (listed as paclitaxel), “in essence ineffective”. Besides, the “% Cell Death” value in data set [2] (organoid cell death) turned out to be 39%. The viability entry in [3] (4 nm/mL) is listed as “about 89%”; in data set [3] (20 nm/mL), “about 57%”; in [4] (paclitaxel alone 4 nm/mL) it was 45%; in [4] (paclitaxel alone, 5× more (20 nm/mL)), 42%. Besides, the “change in viability on increasing the dose by 5×” value in data set [3] (paclitaxel alone 4 to 20 nm/mL) is on record as 32%. Also, in [3] (paclitaxel alone, highest dose (20 nm/mL)), the overall kill rate result is recorded as “less than 50%”. The “change in viability on adding 5× more paclitaxel” value in [4] (paclitaxel alone 4 to 20 nm/mL) is listed as “about 3%”.

Turning to `CCCCCOC(=O)Nc1nc(=O)n([C@@H]2O[C@H](C)[C@@H](O)[C@H]2O)cc1F` [Capecitabine (5-FU), Capecitabine], in data set [5], the Cmax is 2220 nM. For the same molecule, in data set [6], the “Calculated IC50 PD3D Cell Culture” value is “Not Reached”.

Consider `C=C(C)[C@@H]1CCC(C)=C[C@H]1c1c(O)cc(CCCCC)cc1O` [CBD isolate, cannabidiol], for which the “killing of the organoids compared with native pH” value in data set [7] is “virtually no change”. Besides, in [8] (15 μg/mL), the viability at 15 µg/mL came out at 0%. The viability at 20 µg/mL in data set [8] (20 μg/mL) stood at 0%. In data set [9] (Homo sapiens, extract alone), this molecule gave an IC50 of 3 µg/mL (≈ 9.54 µM). The same molecule registered a viability in [9] (carboplatin 50 μm/mL with IC50 amount of extract) of about 37%. The “improvement in viability on adding the extract” value in data set [9] (carboplatin 100 μm/mL plus IC50 amount of extract) came out at 32%.

For the molecule `C=C(C)[C@@H]1CCC(C)=C[C@H]1c1c(O)cc(CCCCC)cc1O` [CBD, cannabidiol], the “inhibition of P-glycoprotein-mediated drug transport” value in data set [10] is “significantly inhibits”. The “response of the patient's organoid” value in [2] (organoid of the chemoresistant endometrial cancer patient) was “significant response”. Besides, the “doses established as well tolerated” value in data set [11] is given as “up to 1,500 mg/day”. Further, the “peak plasma concentrations of CBD” value in [12] (coadministration of rifampicin (a CYP3A4 inducer)) was “significantly reduced”. Further, the “peak plasma drug concentrations” value in data set [12] (coadministration of the CYP3A4 inhibitor ketoconazole) is listed as “nearly doubled”. Moreover, the “time of maximum plasma concentration” value is 1.6 h in data set [12] (oral-mucosal or sublingual delivery) and 2.5 to 5 h in data set [12] (orally delivered). Further, the “time of maximum plasma concentration, delayed” value in [12] (orally delivered, some individuals) is recorded as “up to 6 hours”.

These data come from patent US12440528B2, “Methods of treating ovarian cancer with hemp extract” (Ecofibre USA Inc., priority 2021, dated 2025).
